Test results from patent US20080214606A1, “Methods for the Identification and Use of Compounds Suitable for the Treatment of Drug Resistant Cancer Cells” (The Government of the United States of America as …, priority 2004, published 2008).
Like-named read-outs stand apart in the source and are kept apart here.

How the values were obtained:
ABCD1 = target: T1, ABCD1 (Homo sapiens, UniProt P33897); experiment: Correlation of ABCD1 expression with drug sensitivity across the NCI-60; type: cell-based; conditions: Pearson correlation of ABCD1 expression with sensitivity of the 60 cell lines; 1429 compounds; inverse, p < 0.0001
T1 construct: profiled in 60 diverse cancer cell lines (the NCI-60) using real-time RT-PCR; endogenous in cells; host or cells: NCI-60 human cancer cell lines
Experimental: (§1) Expression levels are measured by real-time quantitative RT-PCR using the LightCycler RNA Amplification SYBR Green kit and a LightCycler machine (Roche Biochemicals, Indianapolis, Ind.). […] When possible, the amplicons are designed to encompass exon-intron boundaries to avoid amplification of genomic DNA. Since the Syber Green assay detects accumulation of double stranded DNA, primers are selected (from a battery consisting of about 200 primers) that amplified a single product of the correct size.
(§2) During PCR amplification, fluorescence emission is measured and recorded in real time by the LightCycler. Crossing point values are calculated, using the LightCycler software package, by the Fit Points analysis method, with baseline fluorescence set at 1. The SyberGreen assay measures accumulation of double-stranded products, and the appearance of primer dimers limits quantitation at high cycle numbers. The specificity of amplified products is verified by melting-curve analysis and agarose gel electrophoresis (not shown). The raw results are expressed as number of cycles to reach the crossing point. If the desired product is not detected, the corresponding value is adjusted to crossing points indicating no expression. To assess the contribution of experimental artifacts, selected cell lines are assessed in replicate.

ABCB1 = ABCB1 (Homo sapiens, UniProt P08183); experiment: Correlation of ABCB1 expression with drug sensitivity across the NCI-60
Experimental: Expression levels are measured by real-time quantitative RT-PCR using the LightCycler RNA Amplification SYBR Green kit and a LightCycler machine (Roche Biochemicals, Indianapolis, Ind.). Specific oligonucleotide probes are designed for each of the ABC transporters using DNAStar Primer Select (DNASTAR Inc.), and they may be synthesized at Lofstrand Laboratories (Gaithersburg, Md.). When possible, the amplicons are designed to encompass exon-intron boundaries to avoid amplification of genomic DNA. Since the Syber Green assay detects accumulation of double stranded DNA, primers are selected (from a battery consisting of about 200 primers) that amplified a single product of the correct size.
RT-PCR is carried out on 150 ng total RNA, in the presence of 250 nM specific primers. Following reverse transcription (20 min at 50° C.), the PCR reaction consists of 45 cycles of denaturation (15 sec at 95° C.), annealing (30 sec at 58° C.), and elongation (30 sec at 72° C.). No-template (water) reaction mixtures are prepared as negative controls.
During PCR amplification, fluorescence emission is measured and recorded in real time by the LightCycler. Crossing point values are calculated, using the LightCycler software package, by the Fit Points analysis method, with baseline fluorescence set at 1. The SyberGreen assay measures accumulation of double-stranded products, and the appearance of primer dimers limits quantitation at high cycle numbers. […] The raw results are expressed as number of cycles to reach the crossing point. If the desired product is not detected, the corresponding value is adjusted to crossing points indicating no expression. To assess the contribution of experimental artifacts, selected cell lines are assessed in replicate.
Both sets are available at http://discover.nci.nih.gov. The two are combined to form a joint dataset that includes 1429 compounds.
To determine quantitatively how well the 47 genes cluster the cell lines by their tissues of origin, a statistical method is employed wherein the kappa statistic is used to indicate how well the observed clusters correspond to the nine tissue-of-origin classifications. […] To control the overall false type 1 error rate, both a step-down procedure (Westfall and Young, 1993, Resampling-Based Multiple Testing: Examples and Methods for p-value Adjustment (New York: Wiley)) and a step-up procedure (Reiner et al., 2003, Bioinformatics 19:368-375) were employed to adjust for multiple testing of all 47 genes simultaneously. In the Benjamini-Hochberg procedure the p-values are computed in the standard way by permutation, assuming that all distributions are exchangeable: the number of values in the permuted data with correlations over a threshold, divided by the number of compounds and by the number of permutations. In this analysis, the False Discovery Rate (q-value) at which each compound would be declared was calculated using the step-up procedure for positively correlated test statistics (again true because all correlations being compared are computed against the same ABC gene): in this procedure the first q-value for the largest correlation is the Bonferroni-corrected p-value for that gene; then further q-values are calculated as qj=max(pj*1429/j, qj-1). This procedure limits the expected proportion of false positives in the list 1, . . . , j to at most qj.

ABCC2 = target: T2, ABCC2 (Homo sapiens, UniProt Q92887); experiment: Correlation of ABCC2 expression with drug sensitivity across the NCI-60; type: cell-based; conditions: Pearson correlation of ABCC2 expression with sensitivity of the 60 cell lines; 1429 compounds; inverse, p < 0.0001
T2 construct: profiled in 60 diverse cancer cell lines (the NCI-60) using real-time RT-PCR; endogenous in cells; host or cells: NCI-60 human cancer cell lines
T2 sequence (Q92887 whole entry): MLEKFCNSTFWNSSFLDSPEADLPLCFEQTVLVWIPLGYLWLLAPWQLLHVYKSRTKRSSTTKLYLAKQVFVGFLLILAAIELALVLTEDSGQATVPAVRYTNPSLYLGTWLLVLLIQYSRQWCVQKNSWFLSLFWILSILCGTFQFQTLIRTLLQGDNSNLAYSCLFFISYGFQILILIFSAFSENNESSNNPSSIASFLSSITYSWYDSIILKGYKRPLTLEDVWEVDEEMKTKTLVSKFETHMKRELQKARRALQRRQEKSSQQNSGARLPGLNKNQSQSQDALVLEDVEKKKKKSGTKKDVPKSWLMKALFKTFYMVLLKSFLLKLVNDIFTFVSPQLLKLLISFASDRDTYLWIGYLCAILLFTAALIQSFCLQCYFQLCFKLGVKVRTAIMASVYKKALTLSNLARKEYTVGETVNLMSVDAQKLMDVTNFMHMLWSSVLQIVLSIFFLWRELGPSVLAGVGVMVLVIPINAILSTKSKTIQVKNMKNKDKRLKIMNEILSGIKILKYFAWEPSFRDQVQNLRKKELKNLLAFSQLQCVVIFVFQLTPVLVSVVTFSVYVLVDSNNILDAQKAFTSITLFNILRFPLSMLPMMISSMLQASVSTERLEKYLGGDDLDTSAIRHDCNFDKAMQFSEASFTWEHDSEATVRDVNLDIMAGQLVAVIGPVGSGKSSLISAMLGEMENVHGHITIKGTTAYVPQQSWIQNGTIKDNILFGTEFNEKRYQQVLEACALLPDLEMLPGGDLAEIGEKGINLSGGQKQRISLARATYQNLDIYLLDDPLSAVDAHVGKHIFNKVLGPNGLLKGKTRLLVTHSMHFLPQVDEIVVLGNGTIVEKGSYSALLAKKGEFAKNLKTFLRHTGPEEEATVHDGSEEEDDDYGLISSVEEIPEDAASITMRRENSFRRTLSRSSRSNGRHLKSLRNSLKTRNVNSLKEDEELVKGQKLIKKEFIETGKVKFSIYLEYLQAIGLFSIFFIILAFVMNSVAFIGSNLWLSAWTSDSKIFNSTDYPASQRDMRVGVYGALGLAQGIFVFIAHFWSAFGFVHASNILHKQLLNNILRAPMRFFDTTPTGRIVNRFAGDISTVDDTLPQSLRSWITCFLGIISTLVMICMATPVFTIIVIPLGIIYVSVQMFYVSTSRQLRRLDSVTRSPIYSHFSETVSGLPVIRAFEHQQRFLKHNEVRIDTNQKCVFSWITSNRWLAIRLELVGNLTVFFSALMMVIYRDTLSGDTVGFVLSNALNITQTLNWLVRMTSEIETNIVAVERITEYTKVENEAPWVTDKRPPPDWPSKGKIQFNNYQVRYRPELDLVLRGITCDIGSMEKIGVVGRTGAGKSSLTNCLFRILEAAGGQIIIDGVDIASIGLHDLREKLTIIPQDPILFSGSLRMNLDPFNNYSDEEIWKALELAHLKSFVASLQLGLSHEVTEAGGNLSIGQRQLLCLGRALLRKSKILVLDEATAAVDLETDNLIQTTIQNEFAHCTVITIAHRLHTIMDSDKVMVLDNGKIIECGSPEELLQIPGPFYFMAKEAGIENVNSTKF
Experimental: as §1, §2

T1 sequence (P33897 whole entry): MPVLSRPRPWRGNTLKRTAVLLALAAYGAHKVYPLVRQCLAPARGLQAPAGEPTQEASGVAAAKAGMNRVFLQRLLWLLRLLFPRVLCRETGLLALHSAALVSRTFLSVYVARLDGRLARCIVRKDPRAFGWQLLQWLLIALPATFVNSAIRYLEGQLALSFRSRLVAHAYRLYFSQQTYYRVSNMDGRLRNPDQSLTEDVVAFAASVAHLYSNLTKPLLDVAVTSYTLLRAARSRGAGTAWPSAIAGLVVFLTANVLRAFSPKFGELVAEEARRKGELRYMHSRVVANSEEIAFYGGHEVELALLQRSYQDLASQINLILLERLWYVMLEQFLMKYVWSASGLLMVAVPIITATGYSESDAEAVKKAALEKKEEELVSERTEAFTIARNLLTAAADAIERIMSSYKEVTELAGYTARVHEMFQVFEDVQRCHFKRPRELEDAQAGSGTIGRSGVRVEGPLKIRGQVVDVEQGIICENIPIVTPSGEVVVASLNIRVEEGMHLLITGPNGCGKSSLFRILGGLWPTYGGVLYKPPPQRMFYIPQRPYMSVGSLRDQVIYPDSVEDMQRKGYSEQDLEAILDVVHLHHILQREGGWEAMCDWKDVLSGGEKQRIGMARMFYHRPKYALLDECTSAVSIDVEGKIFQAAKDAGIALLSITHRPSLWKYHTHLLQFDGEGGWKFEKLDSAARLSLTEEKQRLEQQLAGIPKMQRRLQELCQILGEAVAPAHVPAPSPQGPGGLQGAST
Chain of ABCB1 (P08183 whole entry): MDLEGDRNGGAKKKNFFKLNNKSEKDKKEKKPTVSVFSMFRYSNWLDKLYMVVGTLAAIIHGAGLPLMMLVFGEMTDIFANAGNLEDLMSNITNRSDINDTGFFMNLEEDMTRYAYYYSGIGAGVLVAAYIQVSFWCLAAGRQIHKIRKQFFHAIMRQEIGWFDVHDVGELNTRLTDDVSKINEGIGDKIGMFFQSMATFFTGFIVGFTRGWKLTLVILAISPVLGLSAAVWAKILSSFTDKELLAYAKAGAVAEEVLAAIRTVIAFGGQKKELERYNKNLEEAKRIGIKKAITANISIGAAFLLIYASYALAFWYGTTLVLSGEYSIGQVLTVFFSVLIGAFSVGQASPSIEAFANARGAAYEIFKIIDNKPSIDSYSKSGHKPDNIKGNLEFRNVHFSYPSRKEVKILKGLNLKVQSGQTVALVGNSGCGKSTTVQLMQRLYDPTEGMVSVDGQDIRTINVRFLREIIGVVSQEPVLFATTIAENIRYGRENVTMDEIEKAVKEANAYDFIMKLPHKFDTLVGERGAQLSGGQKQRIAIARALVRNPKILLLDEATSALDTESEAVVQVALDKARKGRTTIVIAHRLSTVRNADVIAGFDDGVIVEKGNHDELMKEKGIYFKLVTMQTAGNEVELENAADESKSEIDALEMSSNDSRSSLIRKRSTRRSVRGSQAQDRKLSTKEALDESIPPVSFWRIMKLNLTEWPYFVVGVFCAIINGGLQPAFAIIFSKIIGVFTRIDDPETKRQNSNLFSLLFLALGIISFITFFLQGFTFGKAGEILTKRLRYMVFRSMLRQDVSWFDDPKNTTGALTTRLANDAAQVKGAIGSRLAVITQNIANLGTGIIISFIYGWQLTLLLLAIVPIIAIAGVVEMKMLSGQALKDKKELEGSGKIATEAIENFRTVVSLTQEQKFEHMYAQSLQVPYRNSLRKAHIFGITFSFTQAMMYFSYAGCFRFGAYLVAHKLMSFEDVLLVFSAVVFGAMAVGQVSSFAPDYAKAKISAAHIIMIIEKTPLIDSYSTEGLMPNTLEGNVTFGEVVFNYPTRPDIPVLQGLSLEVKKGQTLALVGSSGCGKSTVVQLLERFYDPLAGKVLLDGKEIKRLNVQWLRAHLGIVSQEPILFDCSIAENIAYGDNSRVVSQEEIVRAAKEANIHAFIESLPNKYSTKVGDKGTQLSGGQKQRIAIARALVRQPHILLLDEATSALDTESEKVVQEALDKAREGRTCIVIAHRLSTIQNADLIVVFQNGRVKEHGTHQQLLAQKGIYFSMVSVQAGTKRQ

Structure (SMILES): COc1ccc2[nH]c3c(C)c4ccncc4c(C)c3c2c1 [NSC 69187]
- Correlation (ABCD1): −0.5711

Structure (SMILES): Cc1c2ccncc2c(C)c2c1[nH]c1ccccc12 [NSC 71795]
- Correlation (ABCD1): −0.4642

Structure (SMILES): Nc1nc(=S)c2ncn(C3CC(O)C(CO)O3)c2[nH]1 (stereo not shown) [NSC 71851]
- Correlation (ABCD1): −0.4425

Structure (SMILES): O=c1cc(O)ccn1[C@@H]1O[C@H](CO)[C@@H](O)[C@H]1O [NSC 126849]
- Pearson's Correlation Coeff (ABCB1): 0.2357
- Correlation (ABCD1): −0.4214

Structure (SMILES): NC(=O)c1[nH]nc([C@@H]2O[C@H](CO)[C@@H](O)[C@H]2O)c1O [NSC 143095]
- Pearson's Correlation Coeff (ABCB1): 0.2763
- Correlation (ABCD1): −0.5337

Structure (SMILES): Cc1c2ccncc2c(C)c2c1[nH]c1ccc(OCCN(C)C)cc12 [NSC 338258]
- Correlation (ABCD1): −0.5453

Structure (SMILES): COc1cccc2c1C(=O)C=CC2=O [NSC 618315]
- Correlation (ABCC2): −0.4247

Structure (SMILES): COc1ccc2c(c1)-c1nn(CCCN(C)C)c3ccc([N+](=O)[O-])c(c13)N2 [NSC 627168]
- Correlation (ABCD1): −0.4599

Structure (SMILES): CCCCCCCCCCCCCC(=O)NO [NSC 634458]
- Correlation (ABCC2): −0.4326

Structure (SMILES): COC(=O)[C@@]12C(=O)C=CC(=O)[C@@H]1C1C(=CC2COC(C)=O)O[C@@H]2OC3(CCCCC3)O[C@H]12 (stereo partly shown) [NSC 637399]
- Correlation (ABCC2): −0.4969

Structure (SMILES): CN(C)CCC(=O)N1C/C(=C\c2ccc(Cl)c(Cl)c2)C(=O)/C(=C/c2ccc(Cl)c(Cl)c2)C1.Cl [NSC 638645]
- Correlation (ABCC2): −0.5028

Structure (SMILES): COc1cc(/C=C2\CCC(CN(C)C)C2=O)ccc1OC(=O)c1ccccc1.Cl (stereo not shown) [NSC 639518]
- Correlation (ABCC2): −0.4350

Structure (SMILES): CC(C)Cc1ccc(C(C)/C=C2\CCC(CN3CCOCC3)C2=O)cc1.Cl (stereo not shown) [NSC 639976]
- Correlation (ABCC2): −0.4670

Structure (SMILES): CC(C)Cc1ccc(C(C)/C=C2\CCC(CN3CCCCC3)C2=O)cc1.Cl (stereo not shown) [NSC 639978]
- Correlation (ABCC2): −0.5210

Structure (SMILES): OCCOc1ccc(-c2cc(-c3ccccn3)nc(-c3ccccn3)c2)cc1 [NSC 640499]
- Correlation (ABCD1): −0.4694

Structure (SMILES): CCN(CC)CCn1ccc(=O)c2cc3c(=O)ccn(CCN(CC)CC)c3c(C)c21 [NSC 645161]
- Correlation (ABCD1): −0.5134

Structure (SMILES): CCN(CC)CCNc1ccc2ncn3c4ccc(OC)cc4c(=O)c1c23 [NSC 645812]
- Correlation (ABCD1): −0.4825

Structure (SMILES): COc1ccc2c(c1)c(=O)c1c(NCCCN(C)C)ccc3ncn2c31.Cl [NSC 645813]
- Correlation (ABCD1): −0.4824

Structure (SMILES): CCN(CC)CCCNc1ccc2nnn3c4ccc(O)cc4c(=O)c1c23 [NSC 645814]
- Correlation (ABCD1): −0.4346

Structure (SMILES): CN(C)CCCNc1ccc2nnn3c4ccc(O)cc4c(=O)c1c23 [NSC 645830]
- Correlation (ABCD1): −0.4258

Structure (SMILES): CC[C@]12C=CCN3CCC4(c5cc([C@@]6(C(=O)OC)CC7CN(CCc8c6[nH]c6ccccc86)C[C@@H]6CCC[C@H]76)c(OC)cc5N(C)C4[C@](O)(C(=O)OC)C1OC(C)=O)C32.COS(=O)(=O)O (stereo partly shown) [NSC 651727]
- Correlation (ABCB1): −0.3910

Structure (SMILES): CCN(CC)CCCNc1ncc(C)c2c1c1ccc3c(O)cccc3c1n2C [NSC 653438]
- Correlation (ABCD1): −0.4252

Structure (SMILES): c1ccc2c(c1)Nc1cccc3c1c-2nc1ccccc13 [NSC 670692]
- Correlation (ABCD1): −0.4001

Structure (SMILES): Cc1ccc(C2=CC(=O)/C(=C\C(=O)c3ccc(Br)cc3)O2)c(C)c1 [NSC 674919]
- Correlation (ABCC2): −0.4608

Structure (SMILES): [Se]=P(c1ccccc1)(c1ccccc1)c1ccc(C(c2ccccc2)=P(c2ccccc2)(c2ccccc2)c2ccccc2)cc1 [NSC 676864]
- Correlation (ABCB1): −0.6546

Structure (SMILES): [N-]=[N+]=CC(=O)OC1Cc2ccccc2C1 [NSC 679285]
- Correlation of antiproliferative activity with ABCB1 expression (ABCB1): 0.3504

Structure (SMILES): CC(C)OC(=O)c1ccc(CCC2=CC(=O)C=CC2=O)cc1 [NSC 684496]
- Correlation (ABCC2): −0.4340

Structure (SMILES): O=C1/C(=C/c2ccc(F)cc2)CNC/C1=C\c1ccc(F)cc1 [NSC 685126]
- Correlation (ABCD1): −0.4464

Structure (SMILES): COc1c(C)c(C/C=C(\C)CCCCO[Si](c2ccccc2)(c2ccccc2)C(C)(C)C)c(OC)c(OC)c1OC [NSC 687141]
- Correlation of antiproliferative activity with ABCB1 expression (ABCB1): 0.3774

Structure (SMILES): CN(C)CCCNc1ccc2c(=O)n(CCN(C)C)c(=O)n3c4ccccc4c(=O)c1c23 [NSC 687308]
- Correlation (ABCD1): −0.4236

Structure (SMILES): CC1(C)OC2C(CO[Si](C)(C)C(C)(C)C)OC(n3cnc4c(N)nc(C#C[Si](C)(C)C)nc43)C2O1 (stereo not shown) [NSC 687496]
- Correlation (ABCC2): −0.4544

Structure (SMILES): CCCCCCOc1ccc(C(=O)N(C)O)cc1 [NSC 692758]
- Pearson's Correlation Coeff (ABCB1): 0.4825
- Correlation (ABCD1): −0.5012

Structure (SMILES): CN(O)C(=O)c1ccc(OCc2cccc(Cl)c2)cc1 [NSC 692759]
- Pearson's Correlation Coeff (ABCB1): 0.4149
- Correlation (ABCD1): −0.5034

Structure (SMILES): CCOC(=O)c1oc2cc3c(c4c2c1-c1ccccc1N4C)C=CC(C)(C)O3 [NSC 693215]
- Correlation (ABCC2): −0.4377

Structure (SMILES): CC(/C=N/NC(=S)N1CCCCC1)=N/NC(=S)N1CCCCC1 [NSC 693326]
- Correlation of antiproliferative activity with ABCB1 expression (ABCB1): 0.3892

Structure (SMILES): COC(=O)CN(CC(O)C(NC(C)=O)C(O)C=O)C(=O)OCc1ccccc1 (stereo not shown) [NSC 693931]
- Correlation of antiproliferative activity with ABCB1 expression (ABCB1): 0.3708

Structure (SMILES): CC1=NN(c2nc(N)nc(CBr)n2)C(C)(C)C1 [NSC 696916]
- Correlation (ABCC2): −0.4224

Structure (SMILES): CC(C)=CCC[C@@H](C)C1=C(N)C(=O)C(C)=C(O)C1=O [NSC 697124]
- Correlation of antiproliferative activity with ABCB1 expression (ABCB1): 0.4636

Structure (SMILES): CC(C)=CCC[C@@H](C)C1=C(O)C(Nc2ccccc2Cl)=C(C)C(=O)C1=O [NSC 697132]
- Correlation of antiproliferative activity with ABCB1 expression (ABCB1): 0.3558

Structure (SMILES): CCC1=NC(N/N=C/c2ccccc2O)=N/C1=C\c1ccccc1O [NSC 697678]
- Correlation of antiproliferative activity with ABCB1 expression (ABCB1): 0.4314

Structure (SMILES): O=C(/C=C/c1ccccc1)CSc1nc2ccc(I)cc2c(=O)n1Cc1ccccc1 [NSC 715729]
- Correlation of antiproliferative activity with ABCB1 expression (ABCB1): 0.3544

Structure (SMILES): C(=N\NC1=NCCN1)/c1c2ccccc2c(/C=N/NC2=NCCN2)c2ccccc12 [bisantrene, reference compound]
- Relationship between drug sensitivity and ABCB1 expression (in words) (ABCB1; set of 118 compounds with putatively known mechanisms of action, FIG. 2): striking inverse correlations

Structure (SMILES): COc1cccc2c1C(=O)c1c(O)c3c(c(O)c1C2=O)C[C@@](O)(C(=O)CO)C[C@@H]3O[C@H]1C[C@H](N)[C@H](O)[C@H](C)O1 [doxorubicin, reference compound]
- Relationship between drug sensitivity and ABCB1 expression (in words) (ABCB1): striking inverse correlations

Structure (SMILES): COC1=C2C[C@@H](C)C[C@H](OC)[C@H](O)[C@@H](C)/C=C(\C)[C@H](OC(N)=O)[C@@H](OC)/C=C\C=C(/C)C(=O)NC(=CC1=O)C2=O [geldamycin, reference compound]
- Relationship between drug sensitivity and ABCB1 expression (in words) (ABCB1): striking inverse correlations

Structure (SMILES): NC(=O)NO [hydroxyurea, reference compound]
- Relationship between drug sensitivity and ABCB1 expression (in words) (ABCB1): non-correlated or positively correlated

Structure (SMILES): CN(Cc1cnc2nc(N)nc(N)c2n1)c1ccc(C(=O)N[C@@H](CCC(=O)O)C(=O)O)cc1 [methotrexate, reference compound]
- Relationship between drug sensitivity and ABCB1 expression (in words) (ABCB1): non-correlated or positively correlated

Structure (SMILES): CC(=O)O[C@H]1C(=O)[C@@]2(C)[C@H]([C@H](OC(=O)c3ccccc3)[C@]3(O)C[C@H](OC(=O)[C@H](O)[C@@H](NC(=O)c4ccccc4)c4ccccc4)C(C)=C1C3(C)C)[C@]1(OC(C)=O)CO[C@@H]1C[C@@H]2O [paclitaxel, reference compound]
- Relationship between drug sensitivity and ABCB1 expression (in words) (ABCB1): striking inverse correlations

Structure (SMILES): CC[C@]1(O)C[C@@H]2CN(CCc3c([nH]c4ccccc34)[C@@](C(=O)OC)(c3cc4c(cc3OC)N(C)[C@H]3[C@@](O)(C(=O)OC)[C@H](OC(C)=O)[C@]5(CC)C=CCN6CC[C@]43[C@@H]65)C2)C1 [vinblastine, reference compound]
- Relationship between drug sensitivity and ABCB1 expression (in words) (ABCB1): striking inverse correlations
